In patent US8530522B2, “Organic compounds” (Novartis AG, priority 2008, dated 2013):
Structures can show the parent of a compound that is named as a salt.

Legend:
[1] = Storage of Form I samples at elevated temperature and 75% r.h.; assay type: physicochemical
[2] = Water sorption/desorption isotherms (Dynamic Vapor System DVS-1); assay type: physicochemical
Experimental: Sorption/desorption isotherms were measured using the Dynamic Vapor System (DVS-1). Measurement was carried out at 25° C. and 40° C.

solid form after storage ([1]; stored 1 month at 60° C. and 75% r.h.) | solid form after storage ([1]; stored 1 month at 80° C. and 75% r.h.) | relative humidity of first water uptake, water sorption isotherm ([2]; isotherm recorded at 25° C.) [% r.h.] | relative humidity of first significant water uptake, water sorption isotherm ([2]; isotherm recorded at 40° C.) [% r.h.] | Structure (SMILES)
conversion to the hydrate form | conversion to the hydrate form | – | – | CCCCCCCCc1ccc(CCC(N)(CO)CO)cc1 [Form I]
– | – | 90 | 80 | CCCCCCCCc1ccc(CCC(N)(CO)CO)cc1 [FTY720 HCl, 2-amino-2-[2-(4-octylphenyl)ethyl]propane-1,3-diol hydrochloride salt]
